≈ marks a conversion by molar mass, not a printed value. Like-named read-outs stand apart in the source and are kept apart here.
Tests used:
[1] = system: human lung cancer cells A549; test: Cell proliferation assay (CCK-8); assay type: cell-based; details: A549, 72 h
From the text: (§1) CCK-8 method: The CCK-8 method is a highly sensitive, non-radioactive colorimetric assay for the determination of the number of viable cells in cell proliferation or cytotoxicity assays. The orange formazan dye produced by the bioreduction of CCK-8 by intracellular dehydrogenase is soluble in the cell culture medium, and the amount of formazan dye produced is proportional to the number of living cells. The kit used in this method is the tetrazolium salt-WST-8 (2-(2-methoxy-4-nitrophenyl)-3-(4-nitrophenyl)-5-(2,4-disulfophenyl)-2H-tetrazolium monosodium salt) developed by Dojindo Chemical Research Institute (Dojindo), which is capable of being reduced to a water-soluble formazan dye in the presence of the electronic carrier 1-Methoxy PMS.
(§2) Human cervical cancer cells Hela, pancreatic cancer cells PANC-1, esophageal cancer cells Eca-109, human leukemia cells K562, human lung cancer cells A549, human liver cancer cells HepG2, human gastric cancer cells MKN-45, human breast cancer cells MCF7 were cultured in DMEM medium containing 10% FBS (fetal bovine serum), 100 U/mL penicillin and 100 μg/ml streptomycin. Hepatocellular carcinoma cells Bel-7402 were cultured in RPMI-1640 medium containing 10% FBS (fetal bovine serum), 100 U/ml penicillin and 100 μg/ml streptomycin. All cells were placed in a cell culture incubator at 37° C. with 5% CO2. Cells fluid was changed every 3-5 days, and after 80% cell fusion, trypsin digestion and passaging were performed to keep the cells in good logarithmic growth phase.
(§3) All the samples to be tested were dissolved in DMSO.
(§4) Cells in logarithmic growth phase were inoculated in 96-well plates with 5000 cells/well respectively, and after 24 h of incubation, samples were added (final concentrations as shown in the table), and biplicate wells were set up for each sample. The amount of solvent of DMSO was not higher than 2‰. After 72 h, 10 μL of CCK-8 solution was added to each well and incubated for 1.5˜3 h at 37° C. The OD value at 450 nm was measured on an plate reader. Inhibition rate (%)=(1−[(OD450 dosed well−OD450 blank well)/(OD450 control well−OD450 blank well)])×100%
(§5) The fitted IC50 values were calculated using the log (inhibitor) vs. response—Variable slop analysis method in GraphPad Prism software.

[2] = system: human leukemia cells K562; test: Cell proliferation assay (CCK-8); assay type: cell-based; details: K562, 72 h
From the text: as §1, §2, §3, §4, §5

[3] = system: human liver cancer cells HepG2; test: Cell proliferation assay (CCK-8); assay type: cell-based; details: HepG2, 72 h
From the text: as §1, §2, §3, §4, §5

[4] = system: human gastric cancer cells MKN-45; test: Cell proliferation assay (CCK-8); assay type: cell-based; details: MKN-45, 72 h
From the text: as §1, §2, §3, §4, §5

[5] = system: human breast cancer cells MCF7; test: Cell proliferation assay (CCK-8); assay type: cell-based; details: MCF7, 72 h
From the text: as §1, §2, §3, §4, §5

[6] = system: Human cervical cancer cells Hela; test: Cell proliferation assay (CCK-8); assay type: cell-based; details: 72 h
From the text: as §1, §2, §3, §4, §5

[7] = system: Kunming breed mice; test: Acute toxicity test, single intragastric administration; assay type: in vivo
From the text: Objective: Observation of toxic effects of compounds after a single intragastric administration (ig.) to mice
1) Agents: Compounds disclosed herein were formulated to a suitable concentration.
2) Animals: Kunming breed mice, weight 18-22 g, male.

[8] = system: pancreatic cancer cells PANC-1; test: Cell proliferation assay (CCK-8); assay type: cell-based, human; details: PANC-1, 72 h
From the text: as §1, §2, §3, §4, §5

[9] = system: esophageal cancer cells Eca-109; test: Cell proliferation assay (CCK-8); assay type: cell-based, human; details: Eca-109, 72 h
From the text: as §1, §2, §3, §4, §5

[10] = Solubility test (shake 37° C., 24 h, HPLC); assay type: physicochemical; details: x ± s; for solubility at 24 h: thermodynamic from solid
Experimental: The term “solubility” refers to the mass of solute dissolved when a solid substance reaches saturation state in 100 g solvent at a certain temperature. Solubility test refer to the following references: ZHU Shang-bin, et al. Preparation, characterization, and physicochemical properties of arbutin phospholipid complex[J]. Chinese Traditional and Herbal Drugs. 2020, 1-10.
Methods: Excess BFA and the compounds disclosed herein were added to 10 mL of three solvents, methanol, acetone and 5% DMSO+95% H2O, respectively, and shaken on a shaker at 37° C. at 100 r/min for 24 h. After 24 h, the samples were centrifuged at 15 000 r/min for 15 min to remove the undissolved compounds. The supernatant was filtered using a 0.45 μm membrane filter. The supernatant was appropriately diluted with methanol and contents of the compounds were determined by HPLC method to calculate the solubility.

[11] = Pharmacokinetic evaluation (plasma BFA by LC/MS/MS); assay type: in vivo, SD rats; details: iv
Experimental: SD rats were weighed after an overnight fasting of 15 hours and randomly grouped according to weights. The appropriate amount of the compound was accurately weighed, and a final volume of 5% DMSO, 10% Solutol, and 85% Saline was added and vortexed or sonicated to make a thorough mixing to provide a 4 mg/mL solution for intravenous administration (iv.). Venous blood was taken at the time points of 0, 0.083 (iv. group only), 0.25, 0.5, 1.0, 2.0, 5.0, 7.0 and 24 h, via jugular vein or other suitable means, with approximately 0.20 mL of each sample collected, anticoagulated with sodium heparin (with 6.25 μL of 200 mM DDVP/tube added), and placed on ice after collection. The plasma was separated by centrifugation within 2 hours (centrifugal force 6800 g, 6 min, 2-8° C.). The collected plasma samples were stored in a −70° C. refrigerator before analysis, and the remaining plasma samples after analysis were kept stored at −20° C. or −70° C. until LC/MS/MS analysis was performed. The accuracy of QC samples was evaluated while analyzing the samples, and more than 66% of the QC samples were required to have an accuracy between 80-120%. When plasma drug concentration-time curves were plotted, BLQ were recorded as 0. For the calculation of pharmacokinetic parameters, the concentration before dosing was counted as 0; BLQ before Cmax (including “No peak”) was counted as 0; BLQ after Cmax (including “No peak”) was not included in the calculation. Pharmacokinetic parameters such as AUC(0-t), T1/2, Cmax, Tmax and MRT were calculated according to the blood concentration data of BFA at different time points using WinNonlin.

[12] = SD rats, 20 mg/kg, blood concentration of BFA
[13] = mice, single ig., high and low doses (BFA effective amount conversion)
[14] = aqueous with cosolvent or surfactant or cyclodextrin, 5% DMSO + 95% H2O, n = 3, read-out: Solubility, 5% DMSO + 95% H2O
[15] = organic solvent or mixture, acetone, n = 3, read-out: Solubility, Acetone
[16] = organic solvent or mixture, methanol, n = 3, read-out: Solubility, Methanol
[17] = Sprague-Dawley, rat, in vivo, 30 mg/kg
[18] = mice, single ig., high and low doses (BFA effective amount conversion), within 72 h

Row | Compound | IC50 ([1]; Homo sapiens) [nM] | IC50 ([2]; Homo sapiens) [nM] | IC50 ([3]; Homo sapiens) [nM] | IC50 ([4]; Homo sapiens) [nM] | IC50 ([5]; Homo sapiens) [nM] | IC50 ([6]; Homo sapiens) [nM] | Mental condition after administration [7, 13] | IC50 ([8]; Homo sapiens) [nM] | IC50 ([9]; Homo sapiens) [nM] | solubility at 24 h [10, 14] [mg/mL] | solubility at 24 h [10, 15] [mg/mL] | solubility at 24 h [10, 16] [mg/mL] | Death within 72 h [7, 18] | further results
1 | C[C@H]1CCC/C=C/[C@@H]2C[C@H](O)C[C@H]2[C@H](O)/C=C/C(=O)O1 [BFA, Brefeldin A] | – | – | – | – | – | – | – | – | – | – | – | – | – | IC50 [1]: 100 to 1000 nM; IC50 [2]: 100 to 1000 nM; IC50 [3]: 100 to 1000 nM; IC50 [4]: 100 to 1000 nM; IC50 [5]: < 100 nM; IC50 [6]: 100 to 1000 nM; Mortality within 24 h ([7]; mice, single ig., high dose 1000 mg/kg, within 24 h): all animals died; Animals died within 72 h ([7]; mice, single ig., low dose 750 mg/kg, within 72 h): ⅔; IC50 [8]: < 100 nM; IC50 [9]: 100 to 1000 nM; Solubility, 5% DMSO + 95% H2O ([10]; 5% DMSO + 95% H2O, n = 3): 0.085 ± 0.03 mg/mL; Solubility, Acetone ([10]; acetone, n = 3): 3.13 ± 1.24 mg/mL (≈ 11.2 mM); Solubility, Methanol ([10]; methanol, n = 3): 3.13 ± 1.24 mg/mL (≈ 11.2 mM); AUCINF [11, 12]: 4448.31 ng·h/mL; AUClast [11, 12]: 4450.24 ng·h/mL; Cmax [11, 12]: 5744.26 ng/mL; MRTINF [11, 12]: 11.4 min; T1/2 [11, 12]: 25.2 min; Tmax [11, 12]: 15 min
2 | C[C@H]1CCC/C=C/[C@@H]2C[C@H](OC(=O)OCc3cccnc3)C[C@H]2[C@H](O)/C=C/C(=O)O1 [Compound 1, BFA-7-(pyridine-3-ylmethyl)carbonate] | < 100 | 100 to 1000 | < 100 | < 100 | 100 to 1000 | 100 to 1000 | good mental conditions | 100 to 1000 | < 100 | 2.73 ± 0.21 | 68.7 ± 2.53 (≈ 165 mM) | 74.3 ± 2.52 (≈ 179 mM) | – | Death within 72 h ([7]; mouse, in vivo): no death; AUCINF [11, 17]: 5763.29 ng·h/mL; AUClast [11, 17]: 5766.31 ng·h/mL; Cmax [11, 17]: 7192.20 ng/mL; MRTINF [11, 17]: 11.4 min; T1/2 [11, 17]: 15 min; Tmax [11, 17]: 15 min
3 | COc1ccc(COC(=O)O[C@@H]2C[C@H]3[C@H](O)/C=C/C(=O)O[C@@H](C)CCC/C=C/[C@@H]3C2)cn1 [Compound 6] | < 100 | 100 to 1000 | 100 to 1000 | < 100 | 100 to 1000 | 100 to 1000 | good mental conditions | 100 to 1000 | 100 to 1000 | 2.95 ± 1.61 | 70.6 ± 1.44 (≈ 158 mM) | 70.4 ± 3.35 (≈ 158 mM) | no death | –
4 | C[C@H]1CCC/C=C/[C@@H]2C[C@H](OC(=O)OCc3cnc4ccccc4c3)C[C@H]2[C@H](O)/C=C/C(=O)O1 [Compound 11, BFA-7-(quinoline-3-ylmethyl)carbonate] | 100 to 1000 | 100 to 1000 | 100 to 1000 | 100 to 1000 | 100 to 1000 | 100 to 1000 | good mental conditions | < 100 | < 100 | 2.65 ± 1.8 | 67.6 ± 2.74 (≈ 145 mM) | 69.3 ± 4.35 (≈ 149 mM) | no death | –
